# Test results published in publication PMC12503912 (Chemmedchem, 2025).
# *1 amine or outer side, *2 acyl side, *3 side chain or, on linkers, in order; H or OH if unused. Where a SMILES comes first, the peptide text is derived from it. [ ]: non-standard residue; d: D form. The star is where a group is joined. N(CH2CH2CO)Gly = O=C(CN(CCC(=O)[*:3])[*:1])[*:2]; NMe2Val = CC(C)[C@@H](C(=O)*)N(C)C; NHhexadecyl = CCCCCCCCCCCCCCCCN*; X1 = O=C(CN(Cc1cncs1)[*:1])[*:2]; NFurfurylGly = O=C(O)CNCc1ccco1; NMe(benzyl) = CN(Cc1ccccc1)*; NMeV = CN[C@H](C(=O)O)C(C)C; X2 = O=C(NCCCCN*)OCc1ccccc1; Nphe = O=C(O)CNCc1ccccc1; NHcHex = C1CCC(N*)CC1; NHBn = c1ccc(CN*)cc1; NHHex = CCCCCCN*; NHBu = CCCCN*
# How the values were obtained:
# [1] = system: microtubule network in PC-3 cells
# MDA-MB-468 cells = settings: 48 h
# Description: (§1) The anticancer activity of the dolastatin 15 analogs 5a‐i was tested in comparison with cemadotin and the N‐methylated cemadotin derivative 5j against three human cancer cell lines, namely prostate adenocarcinoma PC‐3 cells, colorectal carcinoma HCT‐116 cells, and triple‐negative breast cancer MDA‐MB‐468 cells. In vitro cell viability and cytotoxicity assays were conducted and IC50 curves, and values were determined using the resazurin assay and fluorometric read‐out after 48 h cells’ treatment with the compounds in concentrations covering the micro‐ and nanomolar range (Figure S83, Supporting Information, SI).
# (§2) Material and methods for cell-based assays
# (§3) Human cell culture materials and cultivation methodology
# (§4) The in vitro cell viability and cytotoxicity assays were performed with the human prostate cancer cell line PC-3, the human colorectal cancer cell line HCT-116 and the human triple-negative breast cancer cell line MDA-MB-468; the fluorescence microscopic inspections just with PC-3 cells. The cell lines were obtained from DSMZ (Braunschweig, Germany) and ATCC (Manassas, VA, USA) and cultivated in their specific growth medium. PC-3 cells were cultivated in RPMI 1640 supplemented with 1% (v/v) glutamine, and 10% (v/v) he at-inactivated fetal calf serum (FCS); HCT-116 was cultured in McCoy’s 5a Modified Medium supplemented with 10% (v/v) heat-inactivated FCS; and for MDA-MB-468, DMEM high glucose (4.5 g/L) supplemented with 10% (v/v) heat-inactivated FCS was used.
# (§5) All the basal culture media and supplements, like glutamine and FCS, PBS and 0.05% trypsin-EDTA for cell detachment were purchased from Capricorn Scientific GmbH (Ebsdorfergrund, Germany). Cell culture plastics were used from TPP (Trasadingen, Switzerland), Greiner Bio-One (Frickenhausen, Germany) and Sarstedt (Nürnbrecht, Germany). Digitonin was purchased from Riedel De Haën (Seelze, Germany) and DMSO from Duchefa Biochemie (Haarlem, The Netherlands). Resazurin was used from Sigma-Aldrich Chemie GmbH (Taufkirchen, Germany). The tubulin-specific dye reagent SiR-tubulin kit (SC002) and verapamil were purchased from Spirochrome AG (Stein am Rhein, Switzerland), the nuclei stain H33342 was from Thermo Fisher Scientific (Waltham, MA, USA).
# (§6) Cultivation was routinely done in T-75 flasks in a humidified atmosphere with 5% CO2 at 37 °C until subconfluency (~ 70-80%) was reached, and the cells were ready for subsequent sub-culturing or assay usage. For that, the adherent cells were rinsed with PBS and detached with trypsin/EDTA (0.05% in PBS) prior to cell passaging and seeding.
# (§7) Cell viability assay - methodology
# (§8) The impacts of the newly synthesized dolastatin derivatives analogs on the viability and proliferation of the three human cancer cell lines were investigated by performing fluorometric resazurin-based cell viability assays, following a protocol well established in our lab.[3,4] In 3 R. Kufka, R. Rennert, G. N. Kaluđerović, L. Weber, W. Richter, L. A. Wessjohann, Beilstein J. Org. Chem.
# (§9) 4 Y. T. H. Lam, J. Hoppe, Q. N. Dang; A. Porzel, A. Soboleva, W. Brandt, R. Rennert, H. Hussain, M. D. Davari, […]
# (§10) brief, the cells were seeded in low densities in 96-well plates (PC-3: 3.000 cells/well; HCT-116: 5.000 cells/well; MDA-MB-468: 10.000 cells/well) yielding a seeding confluency of ~ 10 – 20%, and were allowed to adhere overnight. Subsequently, the cells were treated for 48 h with dilutions series (25.6 pM – 10 µM in 5-fold dilutions) of the test compounds (1 mM DMSO stocks). For control measures, cells were treated in parallel with 1% DMSO (negative control, representing the final DMSO content of the highest concentrated sample point, for data normalization set to 100% cell viability) and 100 µM digitonin (positive control, for data normalization set to 0% cell viability). After finalization of the 48 h incubation, the incubation media were discarded, and cells were rinsed once with PBS. Resazurin solution in basal medium
# HCT-116 cells = settings: 48 h
# Description: as §1, §2, §3, §4, §5, §6, §7, §8, §9, §10
# PC-3 cells = settings: 48 h
# Description: as §1, §2, §3, §4, §5, §6, §7, §8, §9, §10
# [2] = system: PC-3, HCT-116 and MDA-MB-468 cells; settings: all cancer cells tested; resazurin, 48 h (Figure S84)
# Description: as §10
Compound,effect on microtubule structure [1],IC50 (MDA-MB-468 cells) [µM],IC50 (HCT-116 cells) [µM],IC50 (PC-3 cells) [µM],cell and nuclear morphology after treatment [1],cytotoxic profile [2]
CCCCNC(=O)CN(Cc1ccccc1)C(=O)[C@@H]1CCCN1C(=O)[C@@H]1CCCN1C(=O)[C@H](C(C)C)N(C)C(=O)[C@@H](NC(=O)[C@H](C(C)C)N(C)C)C(C)C [Peptide 5a] (NMe2Val-V[NMeV]PP[Nphe]-NHBu),acts in the initial phase of microtubule network disruption,0.82,2.2,1.5,,
CCCCCCNC(=O)CN(Cc1ccccc1)C(=O)[C@@H]1CCCN1C(=O)[C@@H]1CCCN1C(=O)[C@H](C(C)C)N(C)C(=O)[C@@H](NC(=O)[C@H](C(C)C)N(C)C)C(C)C [Peptide 5b] (NMe2Val-V[NMeV]PP[Nphe]-NHHex),,2.1,7.2,~5,,
CC(C)[C@H](NC(=O)[C@H](C(C)C)N(C)C)C(=O)N(C)[C@H](C(=O)N1CCC[C@H]1C(=O)N1CCC[C@H]1C(=O)N(CC(=O)NCc1ccccc1)Cc1ccccc1)C(C)C [Peptide 5c] (NMe2Val-V[NMeV]PP[Nphe]-NHBn),,1.1,2.3,1.9,,
CC(C)[C@H](NC(=O)[C@H](C(C)C)N(C)C)C(=O)N(C)[C@H](C(=O)N1CCC[C@H]1C(=O)N1CCC[C@H]1C(=O)N(CC(=O)NC1CCCCC1)Cc1ccccc1)C(C)C [Peptide 5d] (NMe2Val-V[NMeV]PP[Nphe]-NHcHex),,1.4,1.9,1.2,,
CC(C)[C@H](NC(=O)[C@H](C(C)C)N(C)C)C(=O)N(C)[C@H](C(=O)N1CCC[C@H]1C(=O)N1CCC[C@H]1C(=O)N(CC(=O)NCCCCNC(=O)OCc1ccccc1)Cc1ccccc1)C(C)C [Peptide 5e] (NMe2Val-V[NMeV]PP[Nphe]-X2),,1.2,4.3,1.6,,
CCCCCCCCCCCCCCCCNC(=O)CN(Cc1ccccc1)C(=O)[C@@H]1CCCN1C(=O)[C@@H]1CCCN1C(=O)[C@H](C(C)C)N(C)C(=O)[C@@H](NC(=O)[C@H](C(C)C)N(C)C)C(C)C [Peptide 5f] (NMe2Val-V[NMeV]PP[Nphe]-NHhexadecyl),,2.1,2.7,2.1,,
CCCCNC(=O)CN(Cc1cncs1)C(=O)[C@@H]1CCCN1C(=O)[C@@H]1CCCN1C(=O)[C@H](C(C)C)N(C)C(=O)[C@@H](NC(=O)[C@H](C(C)C)N(C)C)C(C)C [Peptide 5h] (NMe2Val-V[NMeV]PP[X1]-NHBu),microtubule networks appear to be stabilized rather than destabilized,0.024,0.05,0.03,enlarged and showed strongly fragmented nuclei,
CCCCNC(=O)CN(Cc1ccco1)C(=O)[C@@H]1CCCN1C(=O)[C@@H]1CCCN1C(=O)[C@H](C(C)C)N(C)C(=O)[C@@H](NC(=O)[C@H](C(C)C)N(C)C)C(C)C [Peptide 5i] (NMe2Val-V[NMeV]PP[NFurfurylGly]-NHBu),,1.2,> 10,3.7,,
"CC(C)[C@H](NC(=O)[C@H](C(C)C)N(C)C)C(=O)N(C)[C@H](C(=O)N1CCC[C@H]1C(=O)N1CCC[C@H]1C(=O)N(C)Cc1ccccc1)C(C)C [Peptide 5j, N‐Methyl‐cemadotin] (NMe2Val-V[NMeV]PP-{NMe(benzyl)})",,> 10,> 10,> 10,,
COc1ccc(CNC(=O)[C@H](CC(C)C)N(CC(=O)NCc2ccccc2)C(=O)[C@@H]2CCCN2C(=O)[C@H](C(C)C)N(C)C(=O)[C@@H](NC(=O)[C@H](C(C)C)N(C)C)C(C)C)cc1 [Peptide 11a],,> 10,> 10,> 10,,
CC(C)C[C@@H](C(=O)NCc1ccccc1)N(CC(=O)NC(C)(C)C)C(=O)[C@@H]1CCCN1C(=O)[C@H](C(C)C)N(C)C(=O)[C@@H](NC(=O)[C@H](C(C)C)N(C)C)C(C)C [Peptide 11b],,> 10,> 10,> 10,,
CCCCNC(=O)CN(C(=O)[C@@H]1CCCN1C(=O)[C@H](C(C)C)N(C)C(=O)[C@@H](NC(=O)[C@H](C(C)C)N(C)C)C(C)C)[C@@H](CC(C)C)C(=O)NCc1ccccc1 [Peptide 11c],,~5,7.9,> 10,,
CC(C)[C@H](NC(=O)[C@H](C(C)C)N(C)C)C(=O)N(C)[C@H](C(=O)N1CCC[C@H]1C(=O)N(CC(=O)NC1CCCCC1)[C@@H](Cc1ccccc1)C(=O)NCc1ccccc1)C(C)C [Peptide 11d],,> 10,> 10,> 10,,
CC(C)[C@H](NC(=O)[C@H](C(C)C)N(C)C)C(=O)N(C)[C@H](C(=O)N1CCC[C@H]1C(=O)N(CC(=O)NC1CCCCC1)[C@@H](Cc1ccccc1)C(=O)NCc1ccco1)C(C)C [Peptide 11e],,> 10,> 10,9.3,,
CC(C)[C@H](NC(=O)[C@H](C(C)C)N(C)C)C(=O)N(C)[C@H](C(=O)N1CCC[C@H]1C(=O)N(CC(=O)NCc1ccccc1)[C@@H](Cc1ccccc1)C(=O)NCc1ccco1)C(C)C [Peptide 11f],,> 10,> 10,> 10,,
CCCCNC(=O)CN(C(=O)[C@@H]1CCCN1C(=O)[C@H](C(C)C)N(C)C(=O)[C@@H](NC(=O)[C@H](C(C)C)N(C)C)C(C)C)[C@@H](C)C(=O)NCc1ccc(OC)cc1 [Peptide 11g],,> 10,> 10,> 10,,
CCCCCCNC(=O)CN(C(=O)[C@@H]1CCCN1C(=O)[C@H](C(C)C)N(C)C(=O)[C@@H](NC(=O)[C@H](C(C)C)N(C)C)C(C)C)[C@@H](C)C(=O)NCc1ccccc1 [Peptide 11h],,,,> 10,,
CCCCCCCCCCCCCCCCNC(=O)CCN(CC(=O)NC1CCCCC1)C(=O)[C@@H]1CCCN1C(=O)[C@H](C(C)C)N(C)C(=O)[C@@H](NC(=O)[C@H](C(C)C)N(C)C)C(C)C [Peptide 11i] (NMe2Val-V[NMeV]P[N(CH2CH2CO)Gly](NHhexadecyl)-NHcHex),,3.4,6.4,2.3,,inducing the death of all cancer cells tested
"CC(C)[C@H](NC(=O)[C@H](C(C)C)N(C)C)C(=O)N(C)[C@H](C(=O)N1CCC[C@H]1C(=O)N1CCC[C@H]1C(=O)NCc1ccccc1)C(C)C [cemadotin, reference compound] (NMe2Val-V[NMeV]PP-NHBn)",,0.0025,0.001,0.0013,,
